Experimental data: patent US11744870B2, “Traditional Chinese medicine composition for treating metabolic syndrome and preparations thereof” (JIANGSU JIUXU PHARMACEUTICAL CO., LTD., priority 2018, dated 2023)

Legend:
Assay type in all cases: in vivo
[1] = tested on: KKAy mice with spontaneous type 2 diabetes; assay: Fasting blood glucose, blood insulin and insulin sensitivity index in KKAy mice; details: 28th day, 150 mg/kg
Procedure: The KKAy mice with spontaneous type 2 diabetes were divided into 5 groups based on the following five indexes: blood glucose reduction percentage within 40 min in an insulin tolerance test, fasting blood glucose, blood TG, blood TC, and weight. […] Animals in the three dosage groups underwent gavage with 500, 1000, and 1500 mg/kg of the traditional Chinese medicine extract composition of the present invention respectively. […] Gavage was performed once a day for 58 consecutive days, and fasting blood glucose and blood insulin level were measured (ELISA method) at the same time when a glucose tolerance test was carried out on the animals in each group on the 28th day of administration, and an insulin sensitivity index (ISI) was calculated, wherein ISI=1/(FBGmg/dl×FBIng/ml).

[2] = tested on: KKAy mice with spontaneous type 2 diabetes; assay: Serum triglyceride and total cholesterol in KKAy mice; details: 14th day, 150 mg/kg
Procedure: (§1) The female KKAy mice with spontaneous type 2 diabetes were fed with a diet dedicated for KKAy mice, with 5 mice in each cage. When the mice weighed over 40 g, prediction of a plurality of indexes such as blood glucose, blood lipid, and insulin resistance were performed. Based on fasting blood glucose, blood glucose reduction percentage within 40 min in an insulin tolerance test, blood triglyceride (TG), total cholesterol (TC), and weight, the mice were divided into 5 groups, with 12 mice in each group.
The KKAy mice with spontaneous type 2 diabetes were divided into 5 groups based on the following five indexes: blood glucose reduction percentage within 40 min in an insulin tolerance test, fasting blood glucose, blood TG, blood TC, and weight. […] The female C57BL/6J mice were used as a normal animal control group (Nor, underwent gavage with a equal volume of water, n=10). Gavage was performed once a day for 58 consecutive days, and at the same time when the animals in each group underwent an insulin tolerance test on the 14th day of administration, blood was collected to measure the serum triglyceride (TG) and total cholesterol (TC) levels.

[3] = tested on: KKAy mice with spontaneous type 2 diabetes; assay: Blood pressure of KKAy mice (non-invasive sphygmomanometer); details: 53rd day, 150 mg/kg
Procedure: The KKAy mice with spontaneous type 2 diabetes were divided into 5 groups based on the following five indexes: blood glucose reduction percentage within 40 min in an insulin tolerance test, fasting blood glucose, blood TG, blood TC, and weight. […] The female C57BL/6J mice were used as a normal animal control group (Nor, underwent gavage with a equal volume of water, n=10). Gavage was performed once a day for 58 consecutive days, and onOn the 53rd day of administration to the animals in each group, the blood pressure was measured by using an intelligent non-invasive sphygmomanometer (BP98A, Beijing Ruanlong Biotechnology Co., Ltd.).

[4] = tested on: KKAy mice with spontaneous type 2 diabetes; assay: Hyperinsulinemic-euglycemic clamp in KKAy mice; details: after 54th day, SSBG 6.0 mmol/L, IIR 20.0 mU/kg/min, 150 mg/kg
Procedure: as §1
The KKAy mice with spontaneous type 2 diabetes were divided into 5 groups based on the following five indexes: blood glucose reduction percentage within 40 min in an insulin tolerance test, fasting blood glucose, blood TG, blood TC, and weight. […] The female C57BL/6J mice were used as a normal animal control group (Nor, underwent gavage with a equal volume of water, n=10). Gavage was performed once a day for 58 consecutive days, and After the 54th day of administration to the animals in each group, 5-6 mice were randomly selected from different groups to carry out a hyperinsulinemic-euglycemic clamp test each day.

[5] = tested on: KKAy mice with spontaneous type 2 diabetes; assay: Glycosylated hemoglobin (HbA1c) level in KKAy mice; details: 48th day, 150 mg/kg
Procedure: as §1
The KKAy mice with spontaneous type 2 diabetes were divided into 5 groups based on the following five indexes: blood glucose reduction percentage within 40 min in an insulin tolerance test, fasting blood glucose, blood TG, blood TC, and weight. […] Animals in the three dosage groups underwent gavage with 500, 1000, and 1500 mg/kg of the traditional Chinese medicine extract composition of the present invention respectively. The female C57BL/6J mice were used as a normal animal control group (Nor, underwent gavage with a equal volume of water, n=10). Gavage was performed once a day for 58 consecutive days, and blood was collected from the tail tip on the 48th day to measure the glycosylated hemoglobin level.

[6] = tested on: C57BL/6J mice fed with a high-fat diet; assay: Insulin tolerance test in C57BL/6J mice fed with a high-fat diet; details: 10th day, 150 mg/kg
Procedure: The male C57BL/6J mice were fed with a high-fat and high-nutrient diet, with 5 mice in each cage. When the mice weighed over 45 g, prediction of a plurality of indexes such as blood glucose, blood lipid, and insulin resistance were performed. Based on fasting blood glucose, blood glucose reduction percentage within 40 min in an insulin tolerance test, blood TG, blood TC, and weight, the mice were divided into 5 groups, with 12 mice in each group.
C57BL/6J mice fed a with high-fat diet and weighing more than 45 g were selected for multi-index prediction tests such as blood glucose, blood lipids, and insulin resistance, and were divided into 5 groups based on the following five indexes: blood glucose reduction percentage within 40 min in an insulin tolerance test, fasting blood glucose, blood TG, blood TC, and weight, with 12 mice in each group. […] Male C57BL/6J mice were used as a normal animal control group. Animals in the positive drug group and each test drug group underwent gavage with a corresponding dosage of the test drug each day. The normal control group and model group underwent gavage with an equal volume of water once a day for 30 days. Animals in each group underwent an insulin tolerance test on the 10th day of the administration. On the test day, the animals fasted for 4 hours (free to drink water), blood was collected from the tail tip (0 min), and then regular insulin (0.4 U/kg) was injected subcutaneously.

`CN(C)C(=N)N=C(N)N` [Met, metformin] was tested, and the Blood insulin ([1]; ELISA) was 36.3 ± 27.6 ng/mL, the ISI ([1]; ISI=1/(FBGmg/dl×FBIng/ml)) was 0.26 ± 0.16 ×10^−3 and the “Serum TC” value [2] was 243.8 ± 44.0 mg/dL. The “Serum TG” value [2] was 253.2 ± 172.6 mg/dL, the BP [3] was 118.7 ± 10.8 mmHG and the GIR [4] was 14.5 ± 0.6 mg/kg · min. For the same compound, the HbA1c [5] was 4.34 ± 0.83 %, the Glu ([6]; 0 min) was 104.5 ± 7.6 mg/dL and the Glu ([6]; 40 min) was 78.3 ± 10.3 mg/dL. It also gave a Glu ([6]; 90 min) of 87.5 ± 24.6 mg/dL.
